According to article PMC10269878 (Microbiology Spectrum, 2023):

Legend:
[1] = mouse, in vivo
melioidosis = conditions: in vivo; cited from earlier work
in vivo = conditions: mouse, po, 100 mg/kg

## C[C@H]1c2cccc(O)c2C(=O)C2=C(O)[C@]3(O)C(=O)C(C(N)=O)=C(O)[C@@H](N(C)C)[C@@H]3[C@@H](O)[C@@H]21 [Doxycycline, doxycycline monohydrate]
[1]
  Doxycycline Absorption (ka): 1.68 h⁻¹
melioidosis
  Efficacy alone to clear melioidosis: ineffective alone to clear melioidosis
In vivo
  AUC(0-t): 12700 ng·h/mL
  Tmax: 1.24 h
  half-life: 2.56 h
  k el: 7.5e-05 s⁻¹
